{
  "source": "patent US9446081B2",
  "about": "“Pharmaceutical composition for preventing and treating complications of diabetes containing a traditional oriental medicine extract or a fraction thereof as an active ingredient” (KOREA INSTITUTE OF ORIENTAL MEDICINE, priority 2011, dated 2016)",
  "key": {"[1]": {"system": "spontaneous diabetic Torii (SDT) rats", "experiment": "Inhibition of diabetic retinopathy in type II diabetic animal model", "type": "in vivo, rat", "settings": "oral once a day 16 weeks, metformin 350 mg/kg", "method": "(§1) To investigate the effect of the extract of Homonoia riparia Lour. on the prevention and treatment of diabetic complications in spontaneous diabetic Torii (SDT) rats, the type II diabetic animal model, the extract of Homonoia riparia Lour. was orally administered to the animal for 16 weeks. 10-week old male SDT rats (CLEA Japan Inc., Tokyo, Japan) were adapted for 1 week, and then continued to raise for 15 weeks until the blood sugar level reached 300 mg/dl. Feed and water were provided freely. 15 weeks later, the rats were grouped into 5 group (8 rats per group), to which the extract of Homonoia riparia Lour. (HR) and the control drug MET were administered orally once a day. The experimental groups included the normal group (NOR), the diabetic group (DM), the metformin (350 mg/kg) treated diabetic group (MET), the Homonoia riparia Lour. extract (100 mg/kg) treated diabetic group (HR-100), and the Homonoia riparia Lour. extract (250 mg/kg) treated diabetic group (HR-250). Each group was administered with the test samples orally once a day for 16 weeks. Urine was picked up 24 hours before autopsy. The organs extracted by autopsy were stored at −80° C.\nWhen hyperglycemic state continues, retinal vessels in eyeball become mal-functioning to cause blood-retinal barrier breakage. […]"}, "[2]": {"system": "spontaneous diabetic Torii (SDT) rats", "experiment": "Diabetic nephropathy in type II diabetic animal model", "type": "in vivo, rat", "settings": "oral once a day 16 weeks", "method": "as §1\nTo investigate the effect of the extract of Homonoia riparia Lour. on the functions of the kidney suffering from chronic diabetes, urine was taken from the animal model 24 hours before the autopsy, with which renal indices {proteinuria, albuminuria, and glomerular filtration rate (Ccr)}, and glycation products (AGES and CML) were quantified. ELISA was performed to measure proteinuria, albuminuria, glomerular filtration rate, AGEs, CML, and podocyte (synaptopodin and WT-1). Particularly, the urine sample was mixed with coating buffer (50 mM carbonate buffer, pH 9.6) to make the final volume to be 100 μl (1:2), which was distributed in a 96-well plate. The plate stood at 37° C. for 3 hours and then washed with 0.05% PBST three times, followed by blocking with 3% skim milk. The plate stood as it was for 1 more hour and then washed. AGEs (Transgenic, JAPAN), CML (Transgenic, JAPAN), albumin, synaptopodin, and WT-1 (Santa Cruz, USA) antibodies were diluted respectively at the ratio of 1:1000, which were loaded in each well of the plate by 100 μl. The plate stood at 37° C. for 2 hours, and washed with 0.05% PBST. HRP-conjugated secondary antibody was loaded in each well of the plate by 100 μl, followed by reacting at 37° C. for 1 hour. 100 μl of the substrate, 3,3′,5,5′-tetramethylbenzidine (TMB) in 0.05% PBST was added to each well of the plate. 5 minutes later, the reaction was terminated by adding 1M H2SO4 solution (100 μl/well). Then OD was measured with an ELISA reader.\nImmunological staining was performed as follows. After deparaffinization and hydration, the slide was reacted in 3% H2O2 solution for 10 minutes to deactivate endogenous peroxidase activity therein. Then, the slide was washed with PBS containing 0.05% tween 20 three times. To eliminate non-specific reaction, the slide was blocked with 5% AFB (animal free bock). The primary antibodies AGEs (Transgenic, Japan) and CML (Transgenic, Japan) were diluted (1:1000) and treated to the slide for 1 hour or overnight. After washing with PBS for 1 hour, the slide was treated with labeled streptavidin biotin (LSAB) kit (Dako, USA), followed by color development by using DAB (Dako, USA). Observation was performed under optical microscope.\nThe kidney was extracted from the animal model during the autopsy, which was fixed in 10% neutralized formalin for overnight. […]"}, "[3]": {"settings": "extract 100 or 250 mg/kg, metformin 350 mg/kg, vs diabetic group (DM), FIG. 6"}},
  "data": [
    {"smiles": "CN(C)C(=N)N=C(N)N", "note": "[metformin]", "values": [
      {"measurement": "blood-retinal barrier breakage (fluorescein-dextran flown out of retinal vessels, non-perfusion area)", "setting": "[1]; extract 100 or 250 mg/kg (HR-100, HR-250), FIG. 2", "value": "fluorescent material was merely observed"},
      {"measurement": "pericyte loss, acellular capillary formation and closed vessels in retina", "setting": "[1]; extract 100 or 250 mg/kg, vs diabetic group, FIG. 3", "value": "significantly decreased"},
      {"measurement": "glomerular hypertrophy and mesangial matrix expansion / morphological changes (PAS staining)", "setting": "[2]; extract 100 or 250 mg/kg dose-dependently, metformin 350 mg/kg (not so significant), FIG. 9", "value": "decreased"},
      {"measurement": "AGEs and CML in urine", "setting": "[2]; extract 100 or 250 mg/kg, metformin 350 mg/kg, FIG. 7", "value": "not much reduced"},
      {"measurement": "albuminuria", "setting": "[2]; [3]", "value": "significantly reduced"},
      {"measurement": "proteinuria", "setting": "[2]; [3]", "value": "higher"},
      {"measurement": "collagen deposition in glomerulus (Masson's trichrome staining)", "setting": "[2]; extract 100 or 250 mg/kg, metformin 350 mg/kg, vs diabetic group (DM), FIG. 10", "value": "not much different"}
    ]}
  ]
}
